Values of other authors in patent publication US8435575B2, “Use of gingerols for cancer patients suffering from nausea and emesis induced by chemotherapy” (priority 2010, dated 2013).
“Also recorded” adds a separate entry of the source.

Columns and labels:
[1] = test system: post operative vomiting and nausea
[2] = test system: post-operative nausea and vomiting
[3] = test system: vection-induced motion sickness; settings: college students with self-reported high susceptibility to motion sickness
[4] = test system: post surgical nausea and vomiting; settings: oral ginger, 1.25 mg intravenous droperidol; 24 hour period following surgery

## CCN(CC)CCNC(=O)c1cc(Cl)c(N)cc1OC [metochlopramide]
[1]; 1 gram ginger powder or metochlopramide one hour prior to anaesthesia, laparoscopic gynaecological surgery
  post-operative nausea versus placebo: significantly more effective than placebo
[1]; after laparoscopic gynaecological surgery, 41% with placebo
  patients nauseated: placebo, 27%
[1]; ginger vs metochlopramide vs placebo
  frequency of emesis between the three arms: no significant differences
[2]; 1.0 g ginger or 10 mg metochlopramide orally prior to gynecological surgery, P < .05
  post-operative nausea and vomiting control versus placebo: significantly more effective than placebo
[2]; both active drugs vs placebo
  post-operative vomiting versus placebo: less vomiting

## CN(C)CCOC(c1ccccc1)c1ccccc1 [diphenhydramine]
[3]
  preventing gastrointestinal symptoms caused by vection-induced motion sickness, versus dried chickweed herb placebo: more effective than dried chickweed herb placebo

## O=C(CCCN1CC=C(n2c(=O)[nH]c3ccccc32)CC1)c1ccc(F)cc1 [droperidol]
[4]
  statistically significant decrease in post-operative nausea or vomiting versus placebo: no differences; also recorded: Neither drug showed a
